In patent US9156834B2, “Derivatives of heteroarylsulfonamides, their preparation and their application in human therapy” (PIERRE FABRE MEDICAMENT, priority 2010, dated 2015) one finds inhibition data, which are given here for 31 compounds.

Counter-ions that a name gives are not always drawn.

In this assay the target is T1, human isoform of the Kv1.5 channels (Homo sapiens, UniProt P22460).
T1 construct: expressed in transfected cells; host or cells: HEK293
T1 sequence (P22460 whole entry, canonical isoform): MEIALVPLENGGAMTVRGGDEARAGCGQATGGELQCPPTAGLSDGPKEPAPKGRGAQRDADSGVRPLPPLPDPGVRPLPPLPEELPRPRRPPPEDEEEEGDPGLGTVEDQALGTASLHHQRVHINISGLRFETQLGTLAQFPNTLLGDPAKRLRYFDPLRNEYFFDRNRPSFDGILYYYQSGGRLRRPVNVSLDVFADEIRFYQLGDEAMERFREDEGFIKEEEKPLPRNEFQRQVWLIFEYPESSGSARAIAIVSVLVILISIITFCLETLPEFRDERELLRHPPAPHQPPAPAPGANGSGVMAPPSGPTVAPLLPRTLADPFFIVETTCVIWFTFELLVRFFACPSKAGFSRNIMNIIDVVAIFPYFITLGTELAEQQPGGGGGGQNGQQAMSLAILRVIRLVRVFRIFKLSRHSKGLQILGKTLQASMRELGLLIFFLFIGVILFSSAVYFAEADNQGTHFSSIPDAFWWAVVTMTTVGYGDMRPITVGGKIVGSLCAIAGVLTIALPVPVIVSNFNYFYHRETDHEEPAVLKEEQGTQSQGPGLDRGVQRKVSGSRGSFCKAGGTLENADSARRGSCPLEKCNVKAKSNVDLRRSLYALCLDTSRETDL
The assay can be described thus: FLIPR thallium ion measurement on potassium channel Kv1.5. Particulars: HEK293 cells stably transfected with hKv1.5; compound 10 μM, 15 min at 37° C.; fluorescence normalised with 10 μM DPO. Type of assay: cell-based. As to the method:
The pharmacological evaluation of the compounds on potassium channel Kv1.5 was undertaken using a 96-well plate and FLIPR technology by thallium ion measurement. The HEK293 cells, transfected in a stable manner with the human isoform of the Kv1.5 channels, are seeded 24 h before the experiment in 96-well plates ([…], 200 μl/well) with polylysine applied in the following culture medium: DMEM, 10% SVF, Penicillin/Streptomycin, G418 as the selection antibiotic.
The FLIPR experiment is undertaken using “FLIPR Potassium Ion Channel Assay Kit”, as indicated by the manufacturer (Molecular Devices).
Briefly, the culture medium is replaced by the solution containing the thallium marker for 90 min at 37° C. On conclusion of this step the compounds for testing are added to a final concentration of 10 μM in the well for 15 min at 37° C. The basic fluorescence is then read for 60 sec. The addition of depolarising medium (20 mM of potassium and 3 mM of final thallium) opens the potassium channels and causes an increase of the fluorescence of the thallium fluorophore corresponding to an influx of thallium ions through the hKv1.5 channels. The measurement is made 30 sec after the injection of the depolarising solution. The application of 10 μM DPO (Tocris, blocker of the Kv1.5 channels) enables the fluorescence to be normalised.
Consider `O=C(c1ccccc1NS(=O)(=O)c1ccc(C(F)(F)F)cn1)N1CCN(c2nc3ccc(F)cc3o2)CC1` [Example 1, N-(2-(4-(6-fluorobenzo[d]oxazol-2-yl)piperazine-1-carbonyl)phenyl)-5-(trifluoromethyl)pyridine-2-sulfonamide], for which the inhibition (usually the relative decrease from the control value, in per cent) at 10 µM was found to be 61.4%.

The compound `O=C(c1ccccc1NS(=O)(=O)c1ccccn1)N1CCN(c2nc3ccc(F)cc3s2)CC1` [Example 2, N-(2-(4-(6-fluorobenzo[d]thiazol-2-yl)piperazine-1-carbonyl)phenyl)-pyridine-2-sulfonamide] returned an inhibition at 10 µM of 100%.

`O=C(c1ccccc1NS(=O)(=O)c1ccccn1)N1CCN(c2nc3ccc(Cl)cc3s2)CC1` [Example 4, N-(2-(4-(6-chlorobenzo[d]thiazol-2-yl)piperazine-1-carbonyl)phenyl)pyridine-2-sulfonamide hydrochloride] showed an inhibition at 10 µM of 100%.

Compound `Cc1cccc2sc(N3CCN(C(=O)c4ccccc4NS(=O)(=O)c4ccccn4)CC3)nc12` [Example 5, N-(2-(4-(4-methylbenzo[d]thiazol-2-yl)piperazine-1-carbonyl)phenyl)-pyridine-2-sulfonamide] showed an inhibition at 10 µM of 90%.

For `O=C(c1ccccc1NS(=O)(=O)c1ccccn1)N1CCN(c2nc3cccc(Cl)c3s2)CC1` [Example 6, N-(2-(4-(7-chlorobenzo[d]thiazol-2-yl)piperazine-1-carbonyl)phenyl)-pyridine-2-sulfonamide], testing at 10 µM gave an inhibition of 91.8%.

The compound `O=C(c1ccccc1NS(=O)(=O)c1ccccn1)N1CCN(c2nc3cc(C(F)(F)F)ccc3s2)CC1` [Example 7, N-(2-(4-(5-(trifluoromethyl)benzo[d]thiazol-2-yl)piperazine-1-carbonyl)phenyl)pyridine-2-sulfonamide] yielded an inhibition at 10 µM of 94.9%.

For `O=C(c1ccccc1NS(=O)(=O)c1ccc(C(F)(F)F)cn1)N1CCN(c2nc3ccc(Cl)cc3s2)CC1` [Example 8, N-(2-(4-(6-chlorobenzo[d]thiazol-2-yl)piperazine-1-carbonyl)phenyl)-5-(trifluoromethyl)pyridine-2-sulfonamide], the inhibition at 10 µM was 94.7%.

`Cc1cccc(S(=O)(=O)Nc2ccccc2C(=O)N2CCN(c3nc4ccc(Br)cc4s3)CC2)n1` [Example 9, N-(2-(4-(6-bromobenzo[d]thiazol-2-yl)piperazine-1-carbonyl)phenyl)-6-methylpyridine-2-sulfonamide dihydrochloride] registered an inhibition at 10 µM of 62.8%.

For the compound `O=C(c1cccc(NS(=O)(=O)c2ccccn2)c1)N1CCN(c2nc3ccc(Cl)cc3o2)CC1` [Example 10, N-(3-(4-(6-chlorobenzo[d]oxazol-2-yl)piperazine-1-carbonyl)-phenyl)pyridine-2-sulfonamide], the inhibition at 10 µM was 58.9%.

As for `O=C(c1cccc(NS(=O)(=O)c2ccccn2)c1)N1CCN(c2nc3ccc(Cl)cc3s2)CC1` [Example 11, N-(3-(4-(6-chlorobenzo[d]thiazol-2-yl)piperazine-1-carbonyl)phenyl)-pyridine-2-sulfonamide], the inhibition at 10 µM worked out at 75.1%.

Compound `Cc1cccc(S(=O)(=O)Nc2cccc(C(=O)N3CCN(c4nc5ccc(Cl)cc5s4)CC3)c2)n1` [Example 12, N-(3-(4-(6-chlorobenzo[d]thiazol-2-yl)piperazine-1-carbonyl)-phenyl)-6-methylpyridine-2-sulfonamide] returned an inhibition at 10 µM of 52.6%.

Regarding `O=C(c1ccc(NS(=O)(=O)c2ccccn2)cc1)N1CCN(c2nc3ccc(F)cc3o2)CC1` [Example 13, N-(4-(4-(6-fluorobenzo[d]oxazol-2-yl)piperazine-1-carbonyl)phenyl)pyridine-2-sulfonamide], the inhibition at 10 µM came out at 100%.

As to `O=C(c1ccc(NS(=O)(=O)c2ccccn2)cc1)N1CCN(c2nc3ccc(Cl)cc3o2)CC1` [Example 14, N-(4-(4-(6-chlorobenzo[d]oxazol-2-yl)piperazine-1-carbonyl)phenyl)pyridine-2-sulfonamide], the inhibition at 10 µM was determined as 68.7%.

The compound `O=C(c1ccc(NS(=O)(=O)c2ccccn2)cc1)N1CCN(c2nc3ccc(Cl)cc3s2)CC1` [Example 15, N-(4-(4-(6-chlorobenzo[d]thiazol-2-yl)piperazine-1-carbonyl)-phenyl)pyridine-2-sulfonamide] had an inhibition at 10 µM of 70.2%.

`O=C(c1ccccc1NS(=O)(=O)c1cccc2cccnc12)N1CCN(c2nc3ccc(Br)cc3s2)CC1` [Example 16, N-(2-(4-(6-bromobenzo[d]thiazol-2-yl)piperazine-1-carbonyl)phenyl)-quinoline-8-sulfonamide] came in with an inhibition at 10 µM of 68%.

`O=C(c1ccccc1NS(=O)(=O)c1cccc2cccnc12)N1CCN(c2nc3ccc(Cl)cc3o2)CC1` [Example 17, N-(2-(4-(6-chlorobenzo[d]oxazol-2-yl)piperazine-1-carbonyl)-phenyl)quinoline-8-sulfonamide] yielded an inhibition at 10 µM of 70.8%.

As for `O=C(c1ccccc1NS(=O)(=O)c1cccc2cccnc12)N1CCN(c2nc3ccc(Cl)cc3s2)CC1` [Example 18, N-(2-(4-(6-chlorobenzo[d]thiazol-2-yl)piperazine-1-carbonyl)-phenyl)quinoline-8-sulfonamide], the inhibition at 10 µM turned out to be 91.5%.

In the case of `O=C(c1ccccc1NS(=O)(=O)c1cccc2cccnc12)N1CCN(c2nc3ccc(OC(F)(F)F)cc3s2)CC1` [Example 19, N-(2-(4-(6-(trifluoromethoxy)benzo[d]thiazol-2-yl)piperazine-1-carbonyl)phenyl)quinoline-8-sulfonamide], 10 µM produced 50.2% inhibition.

In the case of `Cc1cccc2sc(N3CCCN(C(=O)c4ccccc4NS(=O)(=O)c4cccc5cccnc45)CC3)nc12` [Example 20, N-(2-(4-(4-methylbenzo[d]thiazol-2-yl)-1,4-diazepane-1-carbonyl)-phenyl)quinoline-8-sulfonamide], the inhibition at 10 µM is 82.8%.

`Cc1ccc2nc(N3CCC(Oc4ccccc4NS(=O)(=O)c4ccccn4)CC3)oc2c1` [Example 21, N-(2-(1-(6-methylbenzo[d]oxazol-2-yl)piperidin-4-yloxy)phenyl)pyridine-2-sulfonamide] came in with an inhibition at 10 µM of 54.6%.

`O=S(=O)(Nc1ccccc1OC1CCN(c2nc3ccc(Cl)cc3o2)CC1)c1ccccn1` [Example 22, N-(2-(1-(6-chlorobenzo[d]oxazol-2-yl)piperidin-4-yloxy)phenyl)-pyridine-2-sulfonamide]: the inhibition at 10 µM came out at 58.8%.

`CC(C)(C)c1ccc2oc(N3CCC(Oc4ccccc4NS(=O)(=O)c4ccccn4)CC3)nc2c1` [Example 23, N-(2-(1-(5-tert-butylbenzo[d]oxazol-2-yl)piperidin-4-yloxy)phenyl)pyridine-2-sulfonamide] registered an inhibition at 10 µM of 51.8%.

The compound `O=S(=O)(Nc1ccccc1OC1CCN(c2nc3cc(Cl)ccc3o2)CC1)c1ccccn1` [Example 24, N-(2-(1-(5-chlorobenzo[d]oxazol-2-yl)piperidin-4-yloxy)phenyl)-pyridine-2-sulfonamide] showed an inhibition at 10 µM of 81%.

`O=S(=O)(Nc1ccccc1OC1CCN(c2nc3ccccc3s2)CC1)c1ccccn1` [Example 25, N-(2-(1-(benzo[d]thiazol-2-yl)piperidin-4-yloxy)phenyl)pyridine-2-sulfonamide] registered an inhibition at 10 µM of 90.2%.

Compound `O=S(=O)(Nc1ccccc1OC1CCN(c2nc3ccc(Cl)cc3s2)CC1)c1ccccn1` [Example 26] yielded an inhibition at 10 µM of 65.8%.

As for `O=S(=O)(Nc1ccccc1OC1CCN(c2nc3ccc(Br)cc3s2)CC1)c1ccccn1` [Example 27, N-(2-(1-(6-bromobenzo[d]thiazol-2-yl)piperidin-4-yloxy)phenyl)-pyridine-2-sulfonamide], the inhibition at 10 µM was determined as 100%.

For the compound `O=S(=O)(Nc1ccccc1OCC1CCN(c2nc3ccccc3s2)C1)c1ccccn1` (stereo not shown) [Example 28, N-(2-((1-(benzo[d]thiazol-2-yl)pyrrolidin-3-yl)methoxy)phenyl)-pyridine-2-sulfonamide], testing at 10 µM gave an inhibition of 76%.

Regarding `O=S(=O)(Nc1ccccc1OCC1CCN(c2nc3ccc(F)cc3s2)C1)c1ccccn1` (stereo not shown) [Example 29, N-(2-((1-(6-fluorobenzo[d]thiazol-2-yl)pyrrolidin-3-yl)methoxy)phenyl)pyridine-2-sulfonamide], 10 µM produced 64.5% inhibition.

In turn, `O=S(=O)(Nc1ccccc1OCC1CCN(c2nc3ccc(Cl)cc3s2)C1)c1ccccn1` (stereo not shown) [Example 30, N-(2-((1-(6-chlorobenzo[d]thiazol-2-yl)pyrrolidin-3-yl)methoxy)phenyl)pyridine-2-sulfonamide] displayed an inhibition at 10 µM of 54.1%.

`Cc1cccc2sc(N3CCC(COc4ccccc4NS(=O)(=O)c4ccccn4)C3)nc12` (stereo not shown) [Example 31, N-(2-((1-(4-methylbenzo[d]thiazol-2-yl)pyrrolidin-3-yl)methoxy)phenyl)pyridine-2-sulfonamide]: the inhibition at 10 µM amounted to 56%.

As to `COc1cccc2sc(N3CCC(COc4ccccc4NS(=O)(=O)c4ccccn4)C3)nc12` (stereo not shown) [Example 32, N-(2-((1-(4-methoxybenzo[d]thiazol-2-yl)pyrrolidin-3-yl)methoxy)-phenyl)pyridine-2-sulfonamide], testing at 10 µM gave an inhibition of 53.7%.
